Results reported in PubChem BioAssay AID248 (DTP/NCI, 2004).
Values joined by “and” are separate entries in the source; they are usually repeats but may differ in a detail not shown here. Identical values can stand only once. Inconclusive results and toxic doses are left out. No stated cut-off is given here; in the data, active means T/C of 150% or more; inactive means T/C below 125%.

Tested on: L1210 leukemia ip in BDF1 mice, survival T/C
Assay: NCI In Vivo Anticancer Drug Screen. Data for tumor model L1210 Leukemia (intraperitoneal) in B6D2F1 (BDF1) mice
Details: endpoint: mean survival time, higher = longer survival
Procedure, shortened: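 Tumor cells were implanted, animals were treated, and survival was followed. The result divides the treated measurement by the vehicle-control measurement.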

[1] = dose: 100.0 mg/kg/injection, schedule: Q04DX003 (ip), vehicle: Klucel (hydroxypropylcellulose) (HPC)
[2] = dose: 200.0 mg/kg/injection, schedule: Q04DX003 (ip), vehicle: Klucel (hydroxypropylcellulose) (HPC)
[3] = dose: 400.0 mg/kg/injection, schedule: Q04DX003 (ip), vehicle: Klucel (hydroxypropylcellulose) (HPC)
[4] = dose: 100.0 mg/kg/injection, schedule: Q04DX003 (ip), vehicle: saline
[5] = dose: 200.0 mg/kg/injection, schedule: Q04DX003 (ip), vehicle: saline
[6] = dose: 100.0 mg/kg/injection, schedule: Q01DX009 (ip), vehicle: Klucel (hydroxypropylcellulose) (HPC)
[7] = dose: 200.0 mg/kg/injection, schedule: Q01DX009 (ip), vehicle: Klucel (hydroxypropylcellulose) (HPC)
[8] = dose: 100.0 mg/kg/injection, schedule: Q01DX001 (ip), vehicle: saline
[9] = dose: 200.0 mg/kg/injection, schedule: Q01DX001 (ip), vehicle: saline
[10] = dose: 400.0 mg/kg/injection, schedule: Q04DX003 (ip), vehicle: saline
[11] = dose: 100.0 mg/kg/injection, schedule: Q01DX009 (ip), vehicle: saline
[12] = dose: 200.0 mg/kg/injection, schedule: Q01DX009 (ip), vehicle: saline
[13] = dose: 400.0 mg/kg/injection, schedule: Q01DX001 (ip), vehicle: saline
[14] = dose: 100.0 mg/kg/injection, schedule: Q01DX001 (ip), vehicle: Klucel (hydroxypropylcellulose) (HPC)
[15] = dose: 200.0 mg/kg/injection, schedule: Q01DX001 (ip), vehicle: Klucel (hydroxypropylcellulose) (HPC)
[16] = dose: 400.0 mg/kg/injection, schedule: Q01DX001 (ip), vehicle: Klucel (hydroxypropylcellulose) (HPC)

Measured: T/C

CS(=O)(=O)OCCN1CCC2(CC1)SSC1(CCN(CCOS(C)(=O)=O)CC1)S2
inactive: dose: 6.25 mg/kg/injection, schedule: Q01DX009 (ip), vehicle: saline 98 % of control | dose: 12.5 mg/kg/injection, schedule: Q01DX009 (ip), vehicle: saline 101 % of control | dose: 12.5 mg/kg/injection, schedule: Q04DX003 (ip), vehicle: saline 108 % of control | dose: 25.0 mg/kg/injection, schedule: Q04DX003 (ip), vehicle: saline 95 % of control

CCCCCCCCCCCCCCCCCC
inactive: dose: 100.0 mg/kg/injection, schedule: Q04DX002 (ip), vehicle: other 96 % of control | dose: 200.0 mg/kg/injection, schedule: Q04DX002 (ip), vehicle: other 92 % of control

O=C(OC(COC(c1ccccc1)(c1ccccc1)c1ccccc1)C(OC(=O)c1ccccc1)C(COC(c1ccccc1)(c1ccccc1)c1ccccc1)OC(=O)c1ccccc1)c1ccccc1 (configuration not stated)
inactive: [1] 93 % of control | [2] 93 % of control | [3] 93 % of control

O=C1CCCc2ccc([N+](=O)[O-])cc21
inactive: [4] 96 % of control | [5] 87 % of control

OC[CH2][Sb]([Cl])([Cl])([c]1ccccc1)[c]1ccccc1
inactive: dose: 5.0 mg/kg/injection, schedule: Q04DX002 (ip), vehicle: saline with Tween-80 97 % of control | dose: 10.0 mg/kg/injection, schedule: Q04DX002 (ip), vehicle: saline with Tween-80 101 % of control | dose: 20.0 mg/kg/injection, schedule: Q04DX002 (ip), vehicle: saline with Tween-80 101 % of control

Cc1ncc(CO)c(C2NOCc3c(Cl)cc4c(c32)OCO4)c1O (configuration not stated)
inactive: dose: 100.0 mg/kg/injection, schedule: Q01DX009 (ip), vehicle: saline with Tween-80 90 % of control | dose: 200.0 mg/kg/injection, schedule: Q01DX009 (ip), vehicle: saline with Tween-80 95 % of control | dose: 400.0 mg/kg/injection, schedule: Q01DX009 (ip), vehicle: saline with Tween-80 94 % of control

O=C1c2cc([N+](=O)[O-])ccc2SC2C=CSC12 (configuration not stated)
inactive: dose: 100.0 mg/kg/injection, schedule: Q01DX001 (ip), vehicle: carboxymethylcellulose (CMC) 94 % of control | dose: 200.0 mg/kg/injection, schedule: Q01DX001 (ip), vehicle: carboxymethylcellulose (CMC) 108 % of control | dose: 400.0 mg/kg/injection, schedule: Q01DX001 (ip), vehicle: carboxymethylcellulose (CMC) 100 % of control

CC(=O)Oc1ccccc1[N+](=O)[O-]
inactive: [6] 106 % of control | [7] 91 % of control

O=NN1CCCCC1
inactive: dose: 50.0 mg/kg/injection, schedule: Q01DX001 (ip), vehicle: saline 93 % of control | [8] 104 % of control | [9] 96 % of control

Cn1nc2c(N)ncnc2c1C1OC(CO)C(O)C1O (configuration not stated)
inactive: dose: 100.0 mg/kg/injection, schedule: Q01DX005 (ip), vehicle: saline 116 % of control | dose: 200.0 mg/kg/injection, schedule: Q01DX005 (ip), vehicle: saline 106 % of control

C(=N\N=C\c1ccco1)/c1ccco1
inactive: dose: 100.0 mg/kg/injection, schedule: Q01DX001 (ip), vehicle: saline with Tween-80 98 % of control and 103 % of control | dose: 200.0 mg/kg/injection, schedule: Q01DX001 (ip), vehicle: saline with Tween-80 98 % of control

N=C(N(O)C(=O)Nc1ccccc1)C(Cl)(Cl)Cl
inactive: dose: 25.0 mg/kg/injection, schedule: Q01DX009 (ip), vehicle: Klucel (hydroxypropylcellulose) (HPC) 98 % of control | dose: 50.0 mg/kg/injection, schedule: Q01DX009 (ip), vehicle: Klucel (hydroxypropylcellulose) (HPC) 100 % of control | [6] 104 % of control and 105 % of control

CCCCCCN(CCCCCC)CC(=O)NCCCN1CCN(CCCNC(=O)CN(CCCCCC)CCCCCC)CC1
inactive: dose: 12.5 mg/kg/injection, schedule: Q01DX001 (ip), vehicle: carboxymethylcellulose (CMC) 105 % of control | dose: 22.0 mg/kg/injection, schedule: Q01DX001 (ip), vehicle: carboxymethylcellulose (CMC) 98 % of control and 104 % of control | dose: 25.0 mg/kg/injection, schedule: Q01DX001 (ip), vehicle: carboxymethylcellulose (CMC) 100 % of control | dose: 33.0 mg/kg/injection, schedule: Q01DX001 (ip), vehicle: carboxymethylcellulose (CMC) 95 % of control and 100 % of control | dose: 50.0 mg/kg/injection, schedule: Q01DX001 (ip), vehicle: carboxymethylcellulose (CMC) 98 % of control and 101 % of control

Cc1ccc(C(=O)NO)cc1
inactive: dose: 100.0 mg/kg/injection, schedule: Q04DX003 (ip), vehicle: carboxymethylcellulose (CMC) 98 % of control | dose: 200.0 mg/kg/injection, schedule: Q04DX003 (ip), vehicle: carboxymethylcellulose (CMC) 90 % of control | dose: 400.0 mg/kg/injection, schedule: Q04DX003 (ip), vehicle: carboxymethylcellulose (CMC) 98 % of control

CCCCCCCCCCCCn1cnc2c(N)ncnc21
inactive: dose: 12.5 mg/kg/injection, schedule: Q01DX005 (ip), vehicle: other 101 % of control | dose: 25.0 mg/kg/injection, schedule: Q01DX005 (ip), vehicle: other 96 % of control | dose: 50.0 mg/kg/injection, schedule: Q01DX005 (ip), vehicle: other 95 % of control | dose: 100.0 mg/kg/injection, schedule: Q01DX005 (ip), vehicle: other 96 % of control | dose: 200.0 mg/kg/injection, schedule: Q01DX005 (ip), vehicle: other 93 % of control

c1ccc2c(c1)Sc1cnccc1N2CC1CO1 (configuration not stated)
inactive: [4] 96 % of control | [5] 92 % of control | [10] 96 % of control

O=S(=O)(O)CCc1ccccn1
inactive: dose: 50.0 mg/kg/injection, schedule: Q01DX009 (ip), vehicle: saline 106 % of control | [11] 109 % of control | [12] 92 % of control

CC(=O)NC(=O)NC(C)=O
inactive: [8] 95 % of control | [11] 100 % of control | [4] 99 % of control | [9] 94 % of control | [12] 105 % of control | [5] 97 % of control | [13] 97 % of control | dose: 400.0 mg/kg/injection, schedule: Q01DX009 (ip), vehicle: saline 95 % of control | [10] 100 % of control

O=[N+]([O-])c1ccc(C2OC2c2ccccc2)cc1 (configuration not stated)
inactive: [6] 101 % of control | [1] 100 % of control | [7] 95 % of control | [2] 95 % of control | dose: 400.0 mg/kg/injection, schedule: Q01DX009 (ip), vehicle: Klucel (hydroxypropylcellulose) (HPC) 95 % of control | [3] 97 % of control

C=C(C)c1ccc(C)cc1-c1c(OCc2ccccc2)ccc(CCCCC)c1OC
inactive: [14] 97 % of control | [15] 92 % of control | [16] 92 % of control

CC1(C)N=C(N)N=C(N)N1c1ccc(C(=O)Nc2cccc(S(=O)(=O)F)c2)cc1
inactive: dose: 0.8 mg/kg/injection, schedule: Q01DX009 (ip), vehicle: saline 97 % of control | dose: 4.0 mg/kg/injection, schedule: Q01DX009 (ip), vehicle: saline 101 % of control | dose: 20.0 mg/kg/injection, schedule: Q01DX009 (ip), vehicle: saline 97 % of control | [11] 100 % of control | dose: 500.0 mg/kg/injection, schedule: Q01DX009 (ip), vehicle: saline 92 % of control

COC(=O)C(c1ccccc1)c1ccccc1
inactive: [14] 97 % of control | [15] 97 % of control | [16] 104 % of control

Cc1ncc(C(=O)Nc2ccccc2)[nH]1
inactive: [6] 113 % of control | [1] 105 % of control | [7] 106 % of control | [2] 122 % of control

CCOC(=O)C1(C(C)=O)CC=CC1
inactive: [8] 100 % of control | [9] 104 % of control | [13] 100 % of control

O=S(c1ccccc1)N(OCc1ccccc1)S(=O)c1ccccc1 (configuration not stated)
inactive: dose: 25.0 mg/kg/injection, schedule: Q04DX002 (ip), vehicle: Klucel (hydroxypropylcellulose) (HPC) 98 % of control | dose: 50.0 mg/kg/injection, schedule: Q04DX002 (ip), vehicle: Klucel (hydroxypropylcellulose) (HPC) 104 % of control | dose: 100.0 mg/kg/injection, schedule: Q04DX002 (ip), vehicle: Klucel (hydroxypropylcellulose) (HPC) 95 % of control
